These results are taken from ChEMBL document CHEMBL5357060, “Cytotoxic Polyhydroxy-Isoprenoids from Neodidymelliopsis negundinis” (J Nat Prod, 2024).

One series concerns MCF7. Description: Antiproliferative activity against human MCF7 cells assessed as reduction in cell growth incubated for 5 days by MTT assay. Format: functional, cell-based. To be noted: MCF7, 120 h.
Series [1] relates to Candida albicans. Description: Antibiofilm activity against Candida albicans DSM 11225 assessed as increase in biofilm inhibition at 125 microg/ml incubated for 24 hrs by crystal violet staining based plate reader analysis relative to control. Type of series: functional. Further details: scale not given: the % may be the effect or the level left. Conditions: dose 125 µg/ml.

A short description of series [2]: Cytotoxicity against mouse L929 cells assessed as reduction in cell viability incubated for 5 days by MTT assay. Type of series: toxicity, cell-based. (In general: Tetrazolium dyes change colour on reduction, which living cells bring about.)
Series [3] relates to Candida albicans. Nature of the series: Antibiofilm activity against Candida albicans DSM 11225 assessed as increase in biofilm inhibition at 250 ug/ml incubated for 24 hrs by crystal violet staining based plate reader analysis relative to control. Type of series: functional. Further details: scale not given: the % may be the effect or the level left. To be noted: dose 250 µg/ml.

The next series relates to A549. Description: Antiproliferative activity against human A549 cells assessed as reduction in cell growth incubated for 5 days by MTT assay. Type of series: functional, cell-based. Conditions: A549, 120 h.
The test system of another series is PC-3. Nature of the series: Antiproliferative activity against human PC-3 cells assessed as reduction in cell growth incubated for 5 days by MTT assay. Type of series: functional, cell-based. To be noted: PC-3, 120 h.
In series [4] the test system is Staphylococcus aureus. Description: Antibacterial activity against Staphylococcus aureus DSM 346 incubated overnight by serial dilution assay. Type of series: functional.
A further series has as its system KB 3-1. Nature of the series: Antiproliferative activity against human KB-3-1 cells assessed as reduction in cell growth incubated for 5 days by MTT assay. Format: functional, cell-based. Conditions: KB 3-1, 120 h.
For series [5], the system named is Staphylococcus aureus. Nature of the series: Antibiofilm activity against Staphylococcus aureus DSM 1104 assessed as increase in biofilm inhibition at 250 ug/ml incubated for 24 hrs by crystal violet staining based plate reader analysis relative to control. Type of series: functional. On the set-up: scale not given: the % may be the effect or the level left. Conditions: dose 250 µg/ml.

Another series concerns A-431. Nature of the series: Antiproliferative activity against human A-431 cells assessed as reduction in cell growth incubated for 5 days by MTT assay. Format: functional, cell-based. Conditions: A-431, 120 h.
The next series relates to Bacillus subtilis. Description: Antibacterial activity against Bacillus subtilis DSM 10 incubated overnight by serial dilution assay. Format: functional.
Another series has as its system SK-OV-3. Description: Antiproliferative activity against human SK-OV-3 cells assessed as reduction in cell growth incubated for 5 days by MTT assay. Type of series: functional, cell-based. To be noted: SK-OV-3, 120 h.

SMILES strings stand for the structures. pIC50: −log10 of the molar value. Values after ≈ are worked out from the molar mass of the structure shown.

Broadly, the pIC50 is −log10 of the IC50, conventionally taken in molar units. In general, IC50 refers to the concentration that inhibits the measured activity by half. One may read the MIC as the smallest concentration in the dilution series that meets the test's criterion for growth inhibition.

For the compound `C/C(=C\CC/C(C)=C/CO[C@@H]1O[C@H](CO)[C@@H](O)[C@H](O)[C@@H]1O)CC/C=C(\C)CCCC(C)(O)CCCC(C)(O)CCCC(C)(O)CCCC(C)(O)CCCC(C)(O)CCC(O)C(C)(C)O` (some centres not stated), the pIC50 with MCF7 is 5.32; in the series on A549, 5.32; with PC-3, 5.32; with KB 3-1 it was 5.08; in the series on A-431 it was 5.32; in the series on SK-OV-3, 5.32. The values for the Activity in the series with Candida albicans [1], in the series with Candida albicans [3] and in the series on Staphylococcus aureus [5] were 66%, 71% and 85%, respectively. Further, the IC50 at 5 days in series [2] was 8.1 µM. Besides, the MIC in the series on Staphylococcus aureus [4] was determined as 33.3 µg/mL (≈ 36.3 µM); against Bacillus subtilis it was 16.6 µg/mL (≈ 18.1 µM).
